Converted amounts (≈) assume the structure as drawn.
Columns and labels:
Staphylococcus aureus = assay: Antimicrobial activity against Staphylococcus aureus CGMCC1.1361 after 24 hrs by modified microdilution method; format: functional; details: CGMCC1.1361, 24 h
Candida albicans = assay: Antimicrobial activity against Candida albicans CGMCC2.2086 after 48 hrs by modified microdilution method; format: functional; details: CGMCC2.2086, 48 h
[1] = Cytotoxicity against human […] cells assessed as cell survival after 48 hrs by MTT assay; format: functional, cell-based
Escherichia coli = assay: Antimicrobial activity against Escherichia coli CGMCC1.1571 after 24 hrs by modified microdilution method; format: functional; details: CGMCC1.1571, 24 h
Pseudomonas fluorescens = assay: Antimicrobial activity against Pseudomonas fluorescens CGMCC1.1828 after 24 hrs by modified microdilution method; format: functional; details: CGMCC1.1828, 24 h
Bacillus subtilis = assay: Antimicrobial activity against Bacillus subtilis CGMCC1.1162 after 24 hrs by modified microdilution method; format: functional; details: CGMCC1.1162, 24 h
HepG2 = assay: Cytotoxicity against human HepG2 cells assessed as cell survival after 48 hrs by MTT assay; format: functional, cell-based; details: HepG2, 48 h
Aspergillus niger = assay: Antimicrobial activity against Aspergillus niger CGMCC3.316 after 48 hrs by modified microdilution method; format: functional; details: CGMCC3.316, 48 h
Candida tropicalis = assay: Antimicrobial activity against Candida tropicalis CGMCC2.3967 after 48 hrs by modified microdilution method; format: functional; details: CGMCC2.3967, 48 h

Structure (SMILES)	MIC (Staphylococcus aureus) [µg/mL]	MIC (Candida albicans) [µg/mL]	IC50 [1] [µM]	MIC (Escherichia coli) [µg/mL]	MIC (Pseudomonas fluorescens) [µg/mL]	MIC (Bacillus subtilis) [µg/mL]	IC50 (HepG2) [µM]	MIC (Aspergillus niger) [µg/mL]	MIC (Candida tropicalis) [µg/mL]
C[C@H]1[C@H](C)CC[C@]2(C(=O)O)CC[C@]3(C)C(=CC[C@@H]4[C@@]5(C)Cc6c([nH]c7ccc(Cl)cc67)C(C)(C)[C@@H]5CC[C@]43C)[C@H]12	31.2 (≈ 55.5 µM)	> 100	29.9	31.2 (≈ 55.5 µM)	31.2 (≈ 55.5 µM)	31.2 (≈ 55.5 µM)	30.9	> 100	> 100
C[C@H]1[C@H](C)CC[C@]2(C(=O)O)CC[C@]3(C)C(=CC[C@@H]4[C@@]5(C)Cc6c([nH]c7ccc(Br)cc67)C(C)(C)[C@@H]5CC[C@]43C)[C@H]12	62.5 (≈ 103 µM)	62.5 (≈ 103 µM)	62.6	62.5 (≈ 103 µM)	62.5 (≈ 103 µM)	31.2 (≈ 51.4 µM)	38.4	31.2 (≈ 51.4 µM)	62.5 (≈ 103 µM)
Cc1ccc2[nH]c3c(c2c1)C[C@]1(C)[C@H]2CC=C4[C@@H]5[C@@H](C)[C@H](C)CC[C@]5(C(=O)O)CC[C@@]4(C)[C@]2(C)CC[C@H]1C3(C)C	62.5 (≈ 115 µM)	> 100	13.8	31.2 (≈ 57.6 µM)	62.5 (≈ 115 µM)	62.5 (≈ 115 µM)	17	> 100	> 100
COc1ccc2[nH]c3c(c2c1)C[C@]1(C)[C@H]2CC=C4[C@@H]5[C@@H](C)[C@H](C)CC[C@]5(C(=O)O)CC[C@@]4(C)[C@]2(C)CC[C@H]1C3(C)C	31.2 (≈ 55.9 µM)	> 100	31.7	31.2 (≈ 55.9 µM)	62.5 (≈ 112 µM)	31.2 (≈ 55.9 µM)	34.6	> 100	62.5 (≈ 112 µM)
COc1cccc2c3c([nH]c12)C(C)(C)[C@@H]1CC[C@]2(C)[C@H](CC=C4[C@@H]5[C@@H](C)[C@H](C)CC[C@]5(C(=O)O)CC[C@]42C)[C@@]1(C)C3	62.5 (≈ 112 µM)	> 100	> 100	62.5 (≈ 112 µM)	62.5 (≈ 112 µM)	62.5 (≈ 112 µM)	> 100	> 100	> 100
CCOc1ccc2[nH]c3c(c2c1)C[C@]1(C)[C@H]2CC=C4[C@@H]5[C@@H](C)[C@H](C)CC[C@]5(C(=O)O)CC[C@@]4(C)[C@]2(C)CC[C@H]1C3(C)C	62.5 (≈ 109 µM)	> 100	24.5	62.5 (≈ 109 µM)	62.5 (≈ 109 µM)	62.5 (≈ 109 µM)	33	> 100	> 100
COC(=O)[C@]12CC[C@@H](C)[C@H](C)[C@H]1C1=CC[C@@H]3[C@@]4(C)Cc5c([nH]c6ccccc56)C(C)(C)[C@@H]4CC[C@@]3(C)[C@]1(C)CC2	15.6 (≈ 28.8 µM)	62.5 (≈ 115 µM)	> 100	31.2 (≈ 57.6 µM)	62.5 (≈ 115 µM)	31.2 (≈ 57.6 µM)	> 100	62.5 (≈ 115 µM)	62.5 (≈ 115 µM)
COC(=O)[C@]12CC[C@@H](C)[C@H](C)[C@H]1C1=CC[C@@H]3[C@@]4(C)Cc5c([nH]c6ccc(F)cc56)C(C)(C)[C@@H]4CC[C@@]3(C)[C@]1(C)CC2	15.6 (≈ 27.9 µM)	62.5 (≈ 112 µM)	> 100	31.2 (≈ 55.7 µM)	31.2 (≈ 55.7 µM)	31.2 (≈ 55.7 µM)	97	62.5 (≈ 112 µM)	62.5 (≈ 112 µM)
COC(=O)[C@]12CC[C@@H](C)[C@H](C)[C@H]1C1=CC[C@@H]3[C@@]4(C)Cc5c([nH]c6ccc(Cl)cc56)C(C)(C)[C@@H]4CC[C@@]3(C)[C@]1(C)CC2	62.5 (≈ 108 µM)	> 100	> 100	> 100	62.5 (≈ 108 µM)	31.2 (≈ 54.1 µM)	> 100	62.5 (≈ 108 µM)	> 100
COC(=O)[C@]12CC[C@@H](C)[C@H](C)[C@H]1C1=CC[C@@H]3[C@@]4(C)Cc5c([nH]c6ccc(Br)cc56)C(C)(C)[C@@H]4CC[C@@]3(C)[C@]1(C)CC2	31.2 (≈ 50.3 µM)	> 100	> 100	> 100	62.5 (≈ 101 µM)	62.5 (≈ 101 µM)	> 100	> 100	> 100
COC(=O)[C@]12CC[C@@H](C)[C@H](C)[C@H]1C1=CC[C@@H]3[C@@]4(C)Cc5c([nH]c6ccc(C)cc56)C(C)(C)[C@@H]4CC[C@@]3(C)[C@]1(C)CC2	31.2 (≈ 56.1 µM)	> 100	> 100	> 100	62.5 (≈ 112 µM)	31.2 (≈ 56.1 µM)	> 100	31.2 (≈ 56.1 µM)	62.5 (≈ 112 µM)
COC(=O)[C@]12CC[C@@H](C)[C@H](C)[C@H]1C1=CC[C@@H]3[C@@]4(C)Cc5c([nH]c6ccc(OC)cc56)C(C)(C)[C@@H]4CC[C@@]3(C)[C@]1(C)CC2	31.2 (≈ 54.6 µM)	> 100	> 100	62.5 (≈ 109 µM)	> 100	31.2 (≈ 54.6 µM)	> 100	> 100	> 100
COC(=O)[C@]12CC[C@@H](C)[C@H](C)[C@H]1C1=CC[C@@H]3[C@@]4(C)Cc5c([nH]c6c(OC)cccc56)C(C)(C)[C@@H]4CC[C@@]3(C)[C@]1(C)CC2	31.2 (≈ 54.6 µM)	> 100	> 100	> 100	> 100	31.2 (≈ 54.6 µM)	> 100	> 100	> 100
CCOc1ccc2[nH]c3c(c2c1)C[C@]1(C)[C@H]2CC=C4[C@@H]5[C@@H](C)[C@H](C)CC[C@]5(C(=O)OC)CC[C@@]4(C)[C@]2(C)CC[C@H]1C3(C)C	31.2 (≈ 53.3 µM)	> 100	> 100	> 100	62.5 (≈ 107 µM)	31.2 (≈ 53.3 µM)	> 100	> 100	> 100
C[C@H]1[C@H](C)CC[C@]2(C(=O)NCCCN(C)C)CC[C@]3(C)C(=CC[C@@H]4[C@@]5(C)Cc6c([nH]c7ccccc67)C(C)(C)[C@@H]5CC[C@]43C)[C@H]12	15.6 (≈ 25.5 µM)	31.2 (≈ 51 µM)	2.12	15.6 (≈ 25.5 µM)	31.2 (≈ 51 µM)	7.8 (≈ 12.7 µM)	2.78	31.2 (≈ 51 µM)	62.5 (≈ 102 µM)
C[C@H]1[C@H](C)CC[C@]2(C(=O)NCCCN(C)C)CC[C@]3(C)C(=CC[C@@H]4[C@@]5(C)Cc6c([nH]c7ccc(F)cc67)C(C)(C)[C@@H]5CC[C@]43C)[C@H]12	7.8 (≈ 12.4 µM)	31.2 (≈ 49.5 µM)	4.6	7.8 (≈ 12.4 µM)	7.8 (≈ 12.4 µM)	3.9 (≈ 6.19 µM)	6.03	31.2 (≈ 49.5 µM)	31.2 (≈ 49.5 µM)
C[C@H]1[C@H](C)CC[C@]2(C(=O)NCCCN(C)C)CC[C@]3(C)C(=CC[C@@H]4[C@@]5(C)Cc6c([nH]c7ccc(Cl)cc67)C(C)(C)[C@@H]5CC[C@]43C)[C@H]12	7.8 (≈ 12.1 µM)	62.5 (≈ 96.7 µM)	2.78	15.6 (≈ 24.1 µM)	31.2 (≈ 48.3 µM)	15.6 (≈ 24.1 µM)	4.02	31.2 (≈ 48.3 µM)	62.5 (≈ 96.7 µM)
C[C@H]1[C@H](C)CC[C@]2(C(=O)NCCCN(C)C)CC[C@]3(C)C(=CC[C@@H]4[C@@]5(C)Cc6c([nH]c7ccc(Br)cc67)C(C)(C)[C@@H]5CC[C@]43C)[C@H]12	31.2 (≈ 45.2 µM)	> 100	6.8	31.2 (≈ 45.2 µM)	15.6 (≈ 22.6 µM)	31.2 (≈ 45.2 µM)	5.65	62.5 (≈ 90.5 µM)	62.5 (≈ 90.5 µM)
COc1ccc2[nH]c3c(c2c1)C[C@]1(C)[C@H]2CC=C4[C@@H]5[C@@H](C)[C@H](C)CC[C@]5(C(=O)NCCCN(C)C)CC[C@@]4(C)[C@]2(C)CC[C@H]1C3(C)C	31.2 (≈ 48.6 µM)	62.5 (≈ 97.4 µM)	12.8	31.2 (≈ 48.6 µM)	31.2 (≈ 48.6 µM)	15.6 (≈ 24.3 µM)	11.4	31.2 (≈ 48.6 µM)	62.5 (≈ 97.4 µM)
COc1cccc2c3c([nH]c12)C(C)(C)[C@@H]1CC[C@]2(C)[C@H](CC=C4[C@@H]5[C@@H](C)[C@H](C)CC[C@]5(C(=O)NCCCN(C)C)CC[C@]42C)[C@@]1(C)C3	62.5 (≈ 97.4 µM)	> 100	36.2	31.2 (≈ 48.6 µM)	31.2 (≈ 48.6 µM)	31.2 (≈ 48.6 µM)	88.8	> 100	> 100
CCOc1ccc2[nH]c3c(c2c1)C[C@]1(C)[C@H]2CC=C4[C@@H]5[C@@H](C)[C@H](C)CC[C@]5(C(=O)NCCCN(C)C)CC[C@@]4(C)[C@]2(C)CC[C@H]1C3(C)C	62.5 (≈ 95.3 µM)	> 100	4.88	31.2 (≈ 47.6 µM)	62.5 (≈ 95.3 µM)	31.2 (≈ 47.6 µM)	6.25	> 100	> 100
NCC[C@H](O)C(=O)N[C@@H]1C[C@H](N)[C@@H](O[C@H]2O[C@H](CN)[C@@H](O)[C@H](O)[C@H]2O)[C@H](O)[C@H]1O[C@H]1O[C@H](CO)[C@@H](O)[C@H](N)[C@H]1O [AMIKACIN]	0.9 (≈ 1.54 µM)			1.9 (≈ 3.24 µM)	0.9 (≈ 1.54 µM)	0.9 (≈ 1.54 µM)			
COc1cccc2c1C(=O)c1c(O)c3c(c(O)c1C2=O)C[C@@](O)(C(=O)CO)C[C@@H]3O[C@H]1C[C@H](N)[C@H](O)[C@H](C)O1 [DOXORUBICIN]			0.62				0.77		
CC(=O)N1CCN(c2ccc(OCC3COC(Cn4ccnc4)(c4ccc(Cl)cc4Cl)O3)cc2)CC1 (stereo not drawn) [KETOCONAZOLE]		3.9 (≈ 7.34 µM)						7.8 (≈ 14.7 µM)	3.9 (≈ 7.34 µM)

Reference: ChEMBL document CHEMBL3351749, “Synthesis, in vitro antimicrobial and cytotoxic activities of new carbazole derivatives of ursolic acid” (Bioorg Med Chem Lett, 2015)
